Laboratory results taken from patent US11377444B2, “Pyridopyrimidine compounds acting as mTORC 1/2 dual inhibitors” (MEDSHINE DISCOVERY INC., priority 2017, dated 2022).

What was measured:
HT-29 cell = experiment: Cell proliferation inhibitory activity (Cell-Titer-Glo), HT-29; type: cell-based; settings: 3 days incubation
From the text: (§1) Experimental Embodiment 2: Evaluation of Cell Proliferation Inhibitory Activity
(§2) Experiment objective: To detect cell proliferation inhibitory activity of the tested compounds.
(§3) Experimental principle: The luciferase in the Cell-Titer-Glo reagent produces oxyluciferin using luciferin, oxygen and ATP as reaction substrates, and releases energy in the form of light. Since the reaction of luciferase requires ATP, the total amount of light generated by the reaction is proportional to the total amount of ATP that reflects cell viability.
(§4) Cell lines: MCF-7 cell line […], HT-29 cell line (ATCC-HTB-38), OE21 (ECACC-96062201), NCI-N87 cell line (ATCC-CRL-5822)
(§5) Cell culture medium: (RPMI 1640 culture medium (Invitrogen #1868546; 10% serum Invitrogen #1804958; L-glutamine 1×, Invitrogen #1830863; dual antibiotic Hyclone #J170012))
(§6) Cell Titer-Glo® Luminescent Cell Viability Assay Kit (Promega #G7573)
(§7) The cells were inoculated in a 384- or 96-well plate with a density of 1000 cells per well and 25 μL per well according to the instructions of the cell inoculating plate. The edge wells were not inoculated with cells, and was supplemented with […].
(§8) (i) The mother solution of the compound was 10 mM, and diluted with DMSO to an initial concentration of 4 mM. The compound was added to the compound mother solution, 9 μL per well.
(§9) (ii) The compound was diluted with ECHO liquid-handling workstation. Each well of the cell plate was added with 125 nL compound. Each well of the cell wells in 2nd column and 23rd column was added with 125 nL DMSO, and each of the PBS wells in 1st column and 24th column was added with 125 nL DMSO.
(§10) (iii) Each well of the cell plate was supplemented with 25 μL culture medium, the final volume in each well of the cell plate was 50 μL, […] 3 times dilution, 10 concentrations, each concentration was duplicated in left and right wells, the final DMSO concentration was 0.25%.
(§11) 2.3. After addition of the compound, centrifugation was performed at 1000 rpm for 1 min, and the cell plate was placed in a 37° C., 5% CO2 incubator for 3 days.
(§12) The cell plate was taken out from the incubator and equilibrated at room temperature for 30 minutes. 25 μL Cell-Titer-Glo reagent was added to each well, shaken for one minute to mix thoroughly, centrifuged at 1000 rpm for 1 minute. After 10 minutes, the plate was read on PerkinElmer Envision with a […] reading time was set at 0.2 second.

[1] = target: T1, mTOR kinase (mTORC1 and mTORC2 kinase complex) (Homo sapiens, UniProt P42345); experiment: In vitro evaluation of mTOR kinase inhibitory activity (DiscoverX ligand-bead competition binding, qPCR readout)
T1 construct: purchased DiscoverX; host or cells: HEK-293
Description: Experimental Embodiment 1: In Vitro Evaluation of mTOR Kinase Inhibitory Activity This experiment was performed by DiscoverX. All materials and methods were obtained from DiscoverX.
Kinase activity analysis.
1. Labeled mTOR kinase was stably expressed in HEK-293 cells.
2. Streptavidin magnetic beads were treated with biotinylated small molecule ligands at room temperature for 30 minutes to produce affinity resin for kinase analysis;
3. Ligand beads were blocked with excess biotin and washed with buffer (1% bovine serum albumin, […]) to remove unbound ligand and non-specifically bound ligand;
4. The assembly of kinase and ligand and affinity beads, and the binding reaction between the compound and the three were performed in buffer (20% blocking buffer, 0.17x phosphate buffer, 0.05% Tween […]);
5. The test compounds were dissolved in dimethyl sulfoxide;
6. All test compounds were dissolved in DMSO, and then directly diluted […]
7. The solution was placed in a 384-well polypropylene plate, wherein the volume of each well was 0.02 mL;
8. The plate was shaked for an hour at room temperature;
9. The plate was washed with buffer (1× PBS, 0.05% Tween 20);
10. The affinity beads were resuspended in buffer (1× PBS, 0.05% Tween […] non-biotin affinity ligand) and incubated at room temperature for 30 minutes;
11. The kinase concentration in the eluate was deteced by qPCR.

MCF-7 cell = experiment: Cell proliferation inhibitory activity (Cell-Titer-Glo), MCF-7; type: cell-based; settings: Homo sapiens, MCF7, 72 h; 3 days incubation
From the text: as §1, §2, §3, §4, §5, §6, §7, §8, §9, §10, §11, §12

[2] = test system: human breast cancer MCF-7 cell subcutaneous xenograft tumor; experiment: In vivo pharmacodynamic study, MCF-7 subcutaneous xenograft tumor; set-up: species or system BALB/c nude mouse; settings: 15 mg/kg
From the text: Experimental Embodiment 4: In Vivo Pharmacodynamic Study on BALB/c Nude Mouse Model of Human Breast Cancer MCF-7 Cell Subcutaneous Xenograft Tumor
Experimental objective: To study the efficacy of the test compounds on human breast cancer MCF-7 cell subcutaneous xenograft tumor in BALB/c nude mouse model.
Experimental animals: Female BALB/c nude mice, 6-8 weeks old, weighing 18-22 grams; supplier: Shanghai Xipuer-Bikai Experimental Animal Co., Ltd.
Human breast cancer MCF-7 cells (ECACC, article number: 86012803) were subjected to in vitro monolayer culture under the conditions of EMEM (EBSS)+2 mM […]+1% Non Essential Amino Acids (NEAA) medium containing 10% fetal bovine serum, 100 U/mL penicillin and 100 μg/mL streptomycin, and 37° C., 5% CO2incubator. Conventional digestion treatment was carried out with trypsin-EDTA twice a week for cell passage. When the cell saturation was 80%-90%, and the quantity reached the requirement, the cells were collected, counted and inoculated.
Estrogen tablets (0.18 mg) were inoculated into the left back of each mouse three days before cell inoculation, 0.2 mL (1×10^7) MCF-7 cells (added with matrigel, volume ratio of 1:1) were subcutaneously inoculated into the right back of each mouse. When the average volume of tumor reached 142 mm^3, the mice were divided into groups and began to be administrated.
The test compounds were prepared into clear solutions of 0.75 mg/mL, 1.5 mg/mL and 3 mg/mL. The vehicles were 5% DMSO+30% polyethylene glycol 300+65% water.
The experimental indexes were used for investigating whether the growth of the tumors had been inhibited, delayed or cured. The diameters of the tumors were measured with vernier calipers twice a week. The calculation formula of the tumor volume was: V=0.5a×b^2, wherein a and b represent the long and short diameters of the tumor respectively.
The antitumor efficacy of the compound was evaluated by TGI (%) or relative tumor proliferation rate T/C (%). TGI (%) reflects the inhibition rate of the tumor growth. Calculation of TGI (%): TGI (%)=[1−(average tumor volume at the end of administration in the treatment group−average tumor volume at the beginning of administration in the treatment group)/(average tumor volume at the end of treatment in the vehicle control group−average tumor volume at the beginning of treatment in the vehicle control group)]×[…].
Relative tumor proliferation rate T/C (%): The calculation formula was as follows: T/C %=TRTV/CRTV at the beginning of the treatment (TRTV: treatment group RTV; CRTV: negative control group RTV). The relative tumor volume (RTV) was calculated according to the results of tumor measurement. The calculation formula was RTV=Vt/V0, wherein V0 is the average tumor volume measured during administration of the groups (i.e. d0), and Vt is the average tumor volume during a certain measurement, the TRTV and CRTV were taken on the same day.
Statistical analysis included the mean and standard error (SEM) of tumor volume at each time point in each group. […] The comparison between two groups was analyzed by T-test, and the comparison between three or more groups was analyzed by one-way ANOVA.

N87 cell = experiment: Cell proliferation inhibitory activity (Cell-Titer-Glo), N87; type: cell-based; settings: 72 h; 3 days incubation
From the text: as §1, §2, §3, §4, §5, §6, §7, §8, §9, §10, §11, §12

| Kd [1] [µM] | IC50 (MCF-7 cell) [µM] | Compound | also measured |
| --- | --- | --- | --- |
| 0.00079 | – | CNC(=O)c1cccc(-c2ccc3c(N4CCOCC4C)nc(N4CCOC5(CCOC5)C4)nc3n2)c1 (single isomer, unassigned) [Embodiment 32-1] | IC50 (HT-29 cell; Homo sapiens, HT-29, 72 h): 0.744 µM |
| 0.0015 | – | CNC(=O)c1cccc(-c2ccc3c(N4CCOCC4C)nc(N4CCOC5(CCOC5)C4)nc3n2)c1 (single isomer, unassigned) [Embodiment 32-2] | IC50 (HT-29 cell): 1.41 µM |
| 0.00078 | – | CNC(=O)c1cccc(-c2ccc3c(N4CCOCC4C)nc(N4CCOC5(CC(O)C5)C4)nc3n2)c1 (single isomer, unassigned) [Embodiment 33-1] | IC50 (HT-29 cell; Homo sapiens, HT-29, 72 h): 1.97 µM |
| 0.00038 | – | CNC(=O)c1cccc(-c2ccc3c(N4CCOCC4C)nc(N4CCOC5(CC(O)C5)C4)nc3n2)c1 (single isomer, unassigned) [Embodiment 33-2] | IC50 (HT-29 cell): 1.25 µM |
| 0.001 | – | CNC(=O)c1cccc(-c2ccc3c(N4CCOCC4C)nc(N4CCOC5(CC(OC)C5)C4)nc3n2)c1 (single isomer, unassigned) [Embodiment 34-1] | IC50 (HT-29 cell; Homo sapiens, HT-29, 72 h): 1.05 µM |
| 0.00073 | – | CNC(=O)c1cccc(-c2ccc3c(N4CCOCC4C)nc(N4CCOC5(CC(OC)C5)C4)nc3n2)c1 (single isomer, unassigned) [Embodiment 34-2] | IC50 (HT-29 cell): 0.833 µM |
| 0.0007 | 0.176 | CNC(=O)c1cccc(-c2ccc3c(N4CCOCC4C)nc(N4CC5(CCOC5)OCC4C)nc3n2)c1 (single isomer, unassigned) [Embodiment 48-2] | – |
| 0.0007 | 0.636 | CC1COCCN1c1nc(N2CCOC3(CCOC3)C2)nc2nc(-c3cccc(C(N)=O)c3)ccc12 (single isomer, unassigned) [Embodiment 50-2] | – |
| 0.00075 | 0.251 | CNC(=O)c1cccc(-c2ccc3c(N4CCOCC4C)nc(N4CCC5(CC4)OCCO5)nc3n2)c1 (stereo not drawn) [Embodiment 12] | – |
| 0.00064 | 0.255 | CNC(=O)c1cccc(-c2ccc3c(N4CCOC[C@@H]4C)nc(N4CCOC5(CCOCC5)C4)nc3n2)c1 [Embodiment 13] | – |
| 0.00047 | 0.19 | C[C@H]1COCCN1c1nc(N2CCOC3(CC3)C2)nc2nc(-c3cccc(C(=O)NC4CC4)c3)ccc12 [Embodiment 21] | – |
| 0.00041 | 0.206 | CNC(=O)c1cccc(-c2ccc3c(N4CCOC[C@@H]4C)nc(N4CCOC5(CCCC5)C4)nc3n2)c1 [Embodiment 24] | – |
| 0.001 | 0.431 | CNC(=O)c1cccc(-c2ccc3c(N4CC5CCC(C4)O5)nc(N4CCOC5(CC5)C4)nc3n2)c1 [Embodiment 26] | – |
| – | 0.36 | C[C@H]1COCCN1c1nc(N2CCOCC3(CCC3)C2)nc2nc(-c3cccc(C(N)=O)c3)ccc12 [Embodiment 36] | – |
| – | 0.252 | CNC(=O)c1cccc(-c2ccc3c(N4CCOC[C@@H]4C)nc(N4CCOCC5(CCC5)C4)nc3n2)c1 [Embodiment 37] | – |
| – | 0.449 | C[C@H]1COCCN1c1nc(N2CCOCC3(CC3)C2)nc2nc(-c3cccc(C(N)=O)c3)ccc12 [Embodiment 38] | – |
| – | 0.268 | CNC(=O)c1cccc(-c2ccc3c(N4CCOC[C@@H]4C)nc(N4CCOCC5(CC5)C4)nc3n2)c1 [Embodiment 39] | – |
| 0.0003 | – | CC1COCCN1c1nc(N2CCOC3(CCCC3)C2)nc2nc(-c3cccc(C(N)=O)c3)ccc12 (stereo not drawn) [Embodiment 49] | T/C [2]: 121.62%; TGI [2]: −37.89%; RTV (27th day) ([2]; 27th day): 5.07 ± 0.92; Tumor volume (27th day) ([2]; 27th day, mean ± SEM): 759 ± 174 mm^3; Tumor volume (day 0) ([2]; day 0, mean ± SEM): 144 ± 14 mm^3 |
| 0.0008 | 0.586 | C[C@H]1COCCN1c1nc(N2CCOC3(COC3)C2)nc2nc(-c3cccc(C(N)=O)c3)ccc12 [Embodiment 52] | – |
| – | – | COc1ccc(-c2ccc3c(N4CCOC[C@@H]4C)nc(N4CCOC5(CC5)C4)nc3n2)cc1CO [Embodiment 54] | IC50 (N87 cell): 0.119 µM |
| – | – | COc1ccc(-c2ccc3c(N4CCOC[C@@H]4C)nc(N4CCOC5(CC5)C4)nc3n2)cc1C(N)=O [Embodiment 56] | IC50 (N87 cell): 0.167 µM |

| Compound | Kd [1] [µM] | IC50 (MCF-7 cell) [µM] | also measured |
| --- | --- | --- | --- |
| CNC(=O)c1cccc(-c2ccc3c(N4C5CCC4COC5)nc(N4CCOC5(CC5)C4)nc3n2)c1 [Embodiment 9] | 0.00034 | 0.262 | – |
